Experimental findings from patent US7786141B2 (Vertex Pharmaceuticals Incorporated, priority 2004, dated 2010) are described below.

The structures appear in SMILES notation. Where two headings read alike, the source gives them in different places.

Experiment [1] addresses T1, M1 muscarinic receptor (Homo sapiens, UniProt P11229).
T1 construct: expressed in transfected cells; host or cells: CHO (M1-CHO)
T1 sequence (P11229 1-460): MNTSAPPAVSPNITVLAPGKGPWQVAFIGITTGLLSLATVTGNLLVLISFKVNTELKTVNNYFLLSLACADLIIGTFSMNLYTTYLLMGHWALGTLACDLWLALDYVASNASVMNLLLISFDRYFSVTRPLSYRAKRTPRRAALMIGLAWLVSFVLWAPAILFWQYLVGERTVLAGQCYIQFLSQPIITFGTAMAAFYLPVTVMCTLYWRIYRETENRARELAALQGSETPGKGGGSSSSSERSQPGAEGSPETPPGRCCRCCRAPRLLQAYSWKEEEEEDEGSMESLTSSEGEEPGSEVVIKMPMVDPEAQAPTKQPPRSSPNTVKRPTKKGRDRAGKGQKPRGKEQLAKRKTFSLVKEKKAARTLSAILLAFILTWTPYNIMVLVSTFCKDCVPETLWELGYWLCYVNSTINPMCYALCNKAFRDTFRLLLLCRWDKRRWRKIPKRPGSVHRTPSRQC
The experiment in a line: Functional mobilization of intracellular calcium (FLIPR) in M1-CHO cells. In kind it is cell-based. In a few lines: (§1)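 FLIPR Ca2+ read, ex 488/em 540 nm, 60 s. Recombinant CHO lines (M1 or M4), dye-loaded Fluo-3 AM 60-90 min at 37° C, probenecid 1 mM, pH 7.4. Agonist: compound alone; inhibition: 15 min compound pre-incubation, then carbachol at EC80 for that subtype.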
For orientation: Calcium assays in cells follow changes in intracellular calcium, usually with a dye or a luminescent sensor.

In experiment [2] the target is T2, M4 muscarinic receptor (Homo sapiens, UniProt P08173).
T2 construct: expressed in transfected cells; host or cells: CHO (M4-CHO)
T2 sequence (P08173 1-479): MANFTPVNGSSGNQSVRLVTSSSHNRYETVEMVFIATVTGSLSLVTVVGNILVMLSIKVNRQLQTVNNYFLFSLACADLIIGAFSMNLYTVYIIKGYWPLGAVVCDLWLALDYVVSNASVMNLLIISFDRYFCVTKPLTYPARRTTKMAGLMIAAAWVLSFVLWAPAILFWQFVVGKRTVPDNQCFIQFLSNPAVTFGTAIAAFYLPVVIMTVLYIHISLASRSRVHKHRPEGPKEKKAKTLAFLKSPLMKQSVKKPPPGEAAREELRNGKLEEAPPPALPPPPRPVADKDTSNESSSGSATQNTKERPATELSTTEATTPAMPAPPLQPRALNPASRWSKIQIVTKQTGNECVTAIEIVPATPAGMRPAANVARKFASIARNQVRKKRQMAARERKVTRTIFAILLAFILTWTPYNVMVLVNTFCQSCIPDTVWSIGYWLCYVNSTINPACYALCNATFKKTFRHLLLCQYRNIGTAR
The experiment in a line: Functional mobilization of intracellular calcium (FLIPR) in M4-CHO cells. In kind it is cell-based. In a few lines: as §1

Where [3] appears, read: M1 receptor, calcium mobilization.
Setting [4] is: M1 receptor, calcium mobilization, read-out: M1 Efficacy.
Where [5] appears, read: M4 receptor, calcium mobilization.
The mark [6] stands for this setting: M4 receptor, calcium mobilization, read-out: M4 Efficacy.
The mark [7] stands for this setting: Table 4, 100% efficacy is the maximum response obtained with the Carbachol control.
Where [8] appears, read: Table 4, modulating M1 receptor.
The mark [9] stands for this setting: Table 4, modulating M4 receptor.
Setting [10] is: Table 4, M1 receptor, calcium mobilization (FLIPR).
Setting [11] is: Table 4, M4 receptor, calcium mobilization (FLIPR).

Consider `Clc1ccc2c(c1)C1(CCN(CC3CC4C=CC3C4)CC1)CN2` (centres unmarked) [compound 147], for which, in experiment [1] (setting [3]), the “M1 Activity” value was “xxx (activity was measured to be less than 0.1 μM)”. Also, the values for the Emax in experiment [1] (setting [4]) and in experiment [2] (setting [6]) were 65 to 85% and > 85%, respectively. Moreover, in experiment [2] (setting [5]), the “M4 Activity” value was “xx (activity was measured to be between 0.1 μM and 1.0 μM)”.
For the compound `CC(=O)N1CC2(CCN(CC3CC4CCC3CC4)CC2)c2cc(F)ccc21` (centres unmarked) [compound 366], the “M1 Activity” value in experiment [1] (setting [3]) is “xx (activity was measured to be between 0.1 μM and 1.0 μM)”. For the same compound, the Emax in experiment [1] (setting [4]) and in experiment [2] (setting [6]) was < 65% each time. In addition, the “M4 Activity” value in experiment [2] (setting [5]) is “x (activity was measured to be greater than 1.0 μM)”.
In the case of `CN(C)C(=O)N[C@H]1CCC2(CCN(C3CCCCCC3)CC2)c2ccccc21` [compound 617], the Emax was 25 to 100% in experiment [1] (setting [7]) and > 100% in experiment [2] (setting [7]). Also, the “M1 Activity” value in experiment [1] (setting [8]) is “xx (activity was measured to be between 2.0 μM and 5.0 μM)”. Also, the “M4 Activity” value in experiment [2] (setting [9]) is listed as “xxx (activity was measured to be less than 2.0 μM)”.
On to `CC(=O)N1CC2(CCN(C[C@H]3CCN(C(=O)OC(C)C)C3)CC2)c2ccccc21` [compound 864], for which the Emax in experiment [1] (setting [7]) and in experiment [2] (setting [7]) was < 25% each time. The “M1 Activity” value in experiment [1] (setting [10]) is “x (activity was measured to be greater than 5.0 μM)”. The “M4 Activity” value in experiment [2] (setting [11]) was “x (activity was measured to be greater than 5.0 μM)”.
For the compound `CN(C)C(=O)N1C2CCC1CC(N1CCC3(CC1)COc1ccc(F)cc13)C2` (centres unmarked) [compound 203], in experiment [1] (setting [3]), the “M1 Activity” value is given as “xxx (activity was measured to be less than 0.1 μM)”. The Emax in experiment [1] (setting [4]) is 65 to 85%; in experiment [2] (setting [6]) it was < 65%. The “M4 Activity” value in experiment [2] (setting [5]) is “xx (activity was measured to be between 0.1 μM and 1.0 μM)”.
`c1ccc2c(c1)CCCC21CCN(C2C[C@@H]3CC[C@H]2C3)CC1` (some centres unmarked) [compound 642]: the Emax was 25 to 100% in experiment [1] (setting [7]) and > 100% in experiment [2] (setting [7]). Further, the “M1 Activity” value in experiment [1] (setting [8]) is recorded as “x (activity was measured to be greater than 5.0 μM)”. Also, the “M4 Activity” value in experiment [2] (setting [9]) is recorded as “xxx (activity was measured to be less than 2.0 μM)”.
`CS(=O)(=O)N[C@H]1CCC2(CCN([C@H]3CC4CC[C@H](C4)C3)CC2)c2ccccc21` [compound 668]: the Emax in experiment [1] (setting [7]) and in experiment [2] (setting [7]) was 25 to 100% throughout. Also, the “M1 Activity” value in experiment [1] (setting [8]) is reported as “xxx (activity was measured to be less than 2.0 μM)”. For the same compound, the “M4 Activity” value in experiment [2] (setting [9]) is on record as “xxx (activity was measured to be less than 2.0 μM)”.
Turning to `CC(CF)OC(=O)N1CC[C@@H](CN2CCC3(CC2)CN(C(=O)N(C)C)c2ccc(F)cc23)C1` (some centres unmarked) [compound 805], the Emax in experiment [1] (setting [7]) and in experiment [2] (setting [7]) was 25 to 100% throughout. For the same compound, the “M1 Activity” value in experiment [1] (setting [10]) is given as “xxx (activity was measured to be less than 2.0 μM)”. Moreover, the “M4 Activity” value in experiment [2] (setting [11]) is “xxx (activity was measured to be less than 2.0 μM)”.
As for `C#CCOC(=O)N1CC[C@@H](CN2CCC3(CC2)CN(C(=O)N(C)C)c2ccc(F)cc23)C1` [compound 775], the Emax in experiment [1] (setting [7]) and in experiment [2] (setting [7]) was 25 to 100% each time. In experiment [1] (setting [8]), the “M1 Activity” value is “xxx (activity was measured to be less than 2.0 μM)”. For the same compound, the “M4 Activity” value in experiment [2] (setting [9]) is reported as “xxx (activity was measured to be less than 2.0 μM)”.
On to `CC(=O)N[C@H]1CCC2(CCN(C3CCC(C(C)(C)C)CC3)CC2)c2ccccc21` (some centres unmarked) [compound 646], for which the results for the Emax in experiment [1] (setting [7]) and in experiment [2] (setting [7]) were 25 to 100% and < 25%, respectively. Also, the “M1 Activity” value in experiment [1] (setting [8]) is given as “xxx (activity was measured to be less than 2.0 μM)”. For the same compound, in experiment [2] (setting [9]), the “M4 Activity” value was “x (activity was measured to be greater than 5.0 μM)”.
Regarding `CCOC(=O)N1CCC(N2CCC3(CC2)CN(c2ccc(OC)cc2)c2ccc(F)cc23)CC1` [compound 908], the Emax in experiment [1] (setting [7]) and in experiment [2] (setting [7]) was 25 to 100% in each case. For the same compound, the “M1 Activity” value in experiment [1] (setting [10]) is reported as “xxx (activity was measured to be less than 2.0 μM)”. In addition, the “M4 Activity” value in experiment [2] (setting [11]) was “xxx (activity was measured to be less than 2.0 μM)”.
